From ChEMBL document CHEMBL4825708 (J Med Chem, 2021)
Values after ≈ are worked out from the molar mass of the structure shown.

Experiments:
[1] = Kinetic solubility of compound at pH 7.4; conditions: buffer
[2] = Clearance in Sprague-Dawley rat at 1 mg/kg, iv or po measured after 0.033 to 24 hrs by LC/MS/MS analysis; conditions: in vivo
[3] = Apparent permeability in MDCK cells across apical to basolateral side at 10 uM incubated for 3 hrs by LC-MS/MS analysis; conditions: dog
[4] = Distribution coefficient, logD of the compound at pH 7.4; conditions: octanol/water
MCF7 = assay: cells; conditions: Homo sapiens, MCF7, 72 h
Description: Antiproliferative activity against human MCF-7 cells incubated for 72 hrs by Cell-titer Glo assay

in vivo [5] = conditions: Sprague-Dawley, rat, iv, 1 mg/kg
in vivo [6] = conditions: Sprague-Dawley, rat, po, 1 mg/kg
in vitro [7] = conditions: human
in vitro [8] = conditions: rat
[9] = target: T1, Estrogen receptor (Homo sapiens) (UniProt P03372); conditions: MCF7, dose 0.0002-100 nM, time 4.0 hrs
T1 sequence (whole entry): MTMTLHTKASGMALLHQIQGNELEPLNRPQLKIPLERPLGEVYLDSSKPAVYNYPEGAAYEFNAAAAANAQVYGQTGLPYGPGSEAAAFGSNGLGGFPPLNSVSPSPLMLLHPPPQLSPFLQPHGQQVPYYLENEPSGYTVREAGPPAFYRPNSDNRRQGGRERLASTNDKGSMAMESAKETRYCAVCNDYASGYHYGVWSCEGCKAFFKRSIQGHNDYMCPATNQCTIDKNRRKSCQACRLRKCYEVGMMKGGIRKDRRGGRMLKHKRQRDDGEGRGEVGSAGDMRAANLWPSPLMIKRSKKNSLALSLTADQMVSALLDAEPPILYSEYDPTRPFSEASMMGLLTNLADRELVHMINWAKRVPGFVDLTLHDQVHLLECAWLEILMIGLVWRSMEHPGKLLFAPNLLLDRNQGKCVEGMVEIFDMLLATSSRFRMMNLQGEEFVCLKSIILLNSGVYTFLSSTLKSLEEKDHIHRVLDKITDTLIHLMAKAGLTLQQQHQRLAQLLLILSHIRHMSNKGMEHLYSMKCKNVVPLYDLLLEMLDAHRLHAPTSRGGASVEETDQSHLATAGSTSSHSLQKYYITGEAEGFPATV

[10] = target: T1, Estrogen receptor (Homo sapiens); conditions: MCF7, dose 1.0 nM, time 0.5-24 hrs
in vivo [11] = conditions: Sprague-Dawley, rat, po, 5 mg/kg
Estrogen receptor [12] = target: T2, Estrogen receptor (Homo sapiens, UniProt P03372)
T2 sequence (P03372 whole entry): T1 sequence (whole entry)
Description: Antagonist activity at estrogen receptor in human T47D cells incubated for 18 hrs by ultra high sensitivity luminescence reporter gene assay

Estrogen receptor [13] = target: T2, Estrogen receptor; conditions: mcf7
Description: Induction of estrogen receptor degradation in human MCF7 cells incubated for 4 hrs by Alexafluor -488 conjugate anti-mouse IgG staining based fluorescence method

in vitro [14] = conditions: human; remark: listed apart in the source
in vitro [15] = conditions: rat; remark: listed apart in the source
Nav1.5 = Nav1.5 (Homo sapiens, UniProt Q14524); assay: Inhibition of human Nav1.5 expressed in CHO cells at 10 uM by QPatch HT assay; conditions: CHO cells expressing human Nav1.5
Sequence of Nav1.5 (Q14524 whole entry): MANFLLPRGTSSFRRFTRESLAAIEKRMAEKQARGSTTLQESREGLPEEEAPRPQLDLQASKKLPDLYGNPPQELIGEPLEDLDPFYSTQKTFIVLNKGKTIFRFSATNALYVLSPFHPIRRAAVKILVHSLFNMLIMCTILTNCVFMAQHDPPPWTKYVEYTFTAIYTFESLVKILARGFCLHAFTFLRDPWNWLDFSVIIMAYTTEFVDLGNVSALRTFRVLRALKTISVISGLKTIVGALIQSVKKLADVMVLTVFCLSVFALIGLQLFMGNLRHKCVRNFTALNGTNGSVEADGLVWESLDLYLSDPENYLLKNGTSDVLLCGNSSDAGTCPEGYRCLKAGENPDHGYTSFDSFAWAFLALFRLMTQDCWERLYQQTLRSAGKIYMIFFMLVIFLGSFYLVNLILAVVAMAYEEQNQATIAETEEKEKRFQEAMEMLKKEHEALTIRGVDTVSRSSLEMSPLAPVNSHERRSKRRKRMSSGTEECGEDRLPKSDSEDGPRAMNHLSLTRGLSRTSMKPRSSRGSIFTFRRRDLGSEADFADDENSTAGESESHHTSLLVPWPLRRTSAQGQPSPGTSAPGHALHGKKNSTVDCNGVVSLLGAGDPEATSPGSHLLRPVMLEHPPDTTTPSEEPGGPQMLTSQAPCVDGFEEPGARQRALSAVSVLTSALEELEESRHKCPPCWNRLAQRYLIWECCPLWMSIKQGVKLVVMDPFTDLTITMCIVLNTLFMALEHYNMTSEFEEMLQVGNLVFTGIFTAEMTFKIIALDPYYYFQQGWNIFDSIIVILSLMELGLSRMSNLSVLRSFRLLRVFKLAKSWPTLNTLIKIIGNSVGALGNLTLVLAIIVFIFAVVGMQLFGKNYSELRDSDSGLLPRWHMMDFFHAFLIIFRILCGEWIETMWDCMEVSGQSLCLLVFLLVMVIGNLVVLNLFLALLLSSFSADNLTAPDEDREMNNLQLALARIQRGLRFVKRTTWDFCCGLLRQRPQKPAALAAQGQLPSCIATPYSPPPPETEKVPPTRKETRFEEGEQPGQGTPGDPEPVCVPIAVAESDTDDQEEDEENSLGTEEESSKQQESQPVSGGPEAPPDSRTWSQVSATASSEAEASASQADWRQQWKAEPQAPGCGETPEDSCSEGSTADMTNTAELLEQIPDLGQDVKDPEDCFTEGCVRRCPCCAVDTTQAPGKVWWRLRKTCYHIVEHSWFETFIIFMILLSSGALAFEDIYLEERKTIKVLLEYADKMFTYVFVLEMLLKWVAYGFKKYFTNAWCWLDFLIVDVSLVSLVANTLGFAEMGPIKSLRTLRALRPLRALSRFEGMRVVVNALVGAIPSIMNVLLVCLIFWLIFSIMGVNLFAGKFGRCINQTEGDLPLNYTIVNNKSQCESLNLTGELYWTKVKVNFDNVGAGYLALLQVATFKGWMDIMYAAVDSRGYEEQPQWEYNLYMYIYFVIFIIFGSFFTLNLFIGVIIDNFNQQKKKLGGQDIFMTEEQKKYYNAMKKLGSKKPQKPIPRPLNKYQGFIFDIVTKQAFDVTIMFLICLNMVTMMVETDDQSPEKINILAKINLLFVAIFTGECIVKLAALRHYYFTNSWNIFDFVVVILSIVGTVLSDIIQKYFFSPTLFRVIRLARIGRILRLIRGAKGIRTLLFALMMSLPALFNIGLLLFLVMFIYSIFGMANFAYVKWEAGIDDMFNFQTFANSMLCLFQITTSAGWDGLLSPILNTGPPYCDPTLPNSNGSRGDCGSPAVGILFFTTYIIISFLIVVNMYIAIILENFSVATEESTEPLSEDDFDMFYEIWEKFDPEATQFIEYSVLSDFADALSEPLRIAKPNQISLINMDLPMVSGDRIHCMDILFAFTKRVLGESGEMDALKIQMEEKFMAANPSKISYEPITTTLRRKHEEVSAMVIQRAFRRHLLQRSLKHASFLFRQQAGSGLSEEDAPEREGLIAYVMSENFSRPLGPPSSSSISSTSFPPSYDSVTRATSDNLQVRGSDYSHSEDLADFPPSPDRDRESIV

Cav1.2 = Cav1.2 (Homo sapiens, UniProt Q13936); assay: Inhibition of human Cav1.2 expressed in CHO cells at 10 uM by QPatch HT assay; conditions: CHO cells expressing human Cav1.2
Sequence of Cav1.2 (Q13936 whole entry): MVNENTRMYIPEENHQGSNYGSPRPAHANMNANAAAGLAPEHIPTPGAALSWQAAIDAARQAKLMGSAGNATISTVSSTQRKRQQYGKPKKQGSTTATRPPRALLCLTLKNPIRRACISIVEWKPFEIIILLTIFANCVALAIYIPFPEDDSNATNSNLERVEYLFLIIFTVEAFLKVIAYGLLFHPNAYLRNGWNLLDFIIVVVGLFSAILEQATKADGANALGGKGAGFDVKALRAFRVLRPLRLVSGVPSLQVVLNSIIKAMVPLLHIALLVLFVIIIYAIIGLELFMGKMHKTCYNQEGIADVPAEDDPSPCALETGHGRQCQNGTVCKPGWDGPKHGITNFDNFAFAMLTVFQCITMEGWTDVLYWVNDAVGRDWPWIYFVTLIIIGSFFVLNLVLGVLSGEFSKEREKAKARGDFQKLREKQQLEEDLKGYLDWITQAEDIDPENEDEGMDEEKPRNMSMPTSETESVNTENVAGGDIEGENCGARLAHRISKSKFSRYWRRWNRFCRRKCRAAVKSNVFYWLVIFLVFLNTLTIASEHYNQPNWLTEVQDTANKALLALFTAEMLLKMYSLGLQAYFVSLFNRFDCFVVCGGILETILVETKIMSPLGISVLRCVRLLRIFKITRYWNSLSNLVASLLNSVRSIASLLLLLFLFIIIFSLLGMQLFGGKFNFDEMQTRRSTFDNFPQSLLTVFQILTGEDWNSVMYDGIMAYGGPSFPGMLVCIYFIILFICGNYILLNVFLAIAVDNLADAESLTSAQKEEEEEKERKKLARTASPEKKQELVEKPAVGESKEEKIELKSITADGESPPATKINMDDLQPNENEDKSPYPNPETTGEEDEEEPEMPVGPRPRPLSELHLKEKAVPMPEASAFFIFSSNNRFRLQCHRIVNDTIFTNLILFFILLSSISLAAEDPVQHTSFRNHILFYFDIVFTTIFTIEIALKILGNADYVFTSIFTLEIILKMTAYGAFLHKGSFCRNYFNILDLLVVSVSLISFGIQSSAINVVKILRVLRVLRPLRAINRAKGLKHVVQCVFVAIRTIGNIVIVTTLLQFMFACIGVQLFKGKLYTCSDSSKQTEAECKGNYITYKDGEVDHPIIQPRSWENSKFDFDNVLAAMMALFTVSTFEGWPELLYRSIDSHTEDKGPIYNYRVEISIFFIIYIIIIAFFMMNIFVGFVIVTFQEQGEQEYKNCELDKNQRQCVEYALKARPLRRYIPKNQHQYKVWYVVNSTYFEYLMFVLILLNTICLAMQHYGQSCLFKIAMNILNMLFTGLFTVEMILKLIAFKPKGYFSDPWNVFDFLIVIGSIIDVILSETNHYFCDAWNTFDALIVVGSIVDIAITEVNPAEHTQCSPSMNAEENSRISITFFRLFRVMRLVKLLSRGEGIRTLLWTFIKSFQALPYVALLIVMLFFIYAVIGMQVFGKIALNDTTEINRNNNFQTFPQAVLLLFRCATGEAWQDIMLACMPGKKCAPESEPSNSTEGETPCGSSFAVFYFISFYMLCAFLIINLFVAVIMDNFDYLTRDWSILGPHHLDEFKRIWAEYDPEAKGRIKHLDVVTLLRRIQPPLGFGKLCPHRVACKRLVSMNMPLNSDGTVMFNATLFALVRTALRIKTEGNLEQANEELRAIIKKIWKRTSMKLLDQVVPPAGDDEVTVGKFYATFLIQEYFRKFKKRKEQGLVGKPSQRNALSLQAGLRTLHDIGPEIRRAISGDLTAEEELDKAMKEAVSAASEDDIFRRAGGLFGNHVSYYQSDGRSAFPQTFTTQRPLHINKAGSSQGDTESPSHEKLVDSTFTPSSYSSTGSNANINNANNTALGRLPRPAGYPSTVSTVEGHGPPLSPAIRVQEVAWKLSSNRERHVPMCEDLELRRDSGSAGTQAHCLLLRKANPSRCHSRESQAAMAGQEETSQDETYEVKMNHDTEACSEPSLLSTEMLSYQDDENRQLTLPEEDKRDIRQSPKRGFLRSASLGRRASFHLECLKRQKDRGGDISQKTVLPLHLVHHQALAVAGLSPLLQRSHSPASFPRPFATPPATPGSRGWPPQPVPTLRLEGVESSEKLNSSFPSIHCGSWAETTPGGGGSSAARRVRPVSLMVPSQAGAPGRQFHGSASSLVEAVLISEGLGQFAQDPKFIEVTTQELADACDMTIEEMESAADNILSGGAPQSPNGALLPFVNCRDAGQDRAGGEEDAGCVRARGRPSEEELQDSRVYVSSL

[16] = rat, in vivo, iv, 1 mg/kg

Compound | solubility kinetic [1] [µM] | logD [4] | EC50 (MCF7) [nM] | CLint scaled at 1 h (in vitro [7]; hepatocytes) [mL/min/kg] | CLint scaled at 1 h (in vitro [8]; hepatocytes) [mL/min/kg] | DC50 (Estrogen receptor [13]) [nM] | CLint scaled at 1 h, 1 µM (in vitro [14]; microsomes) [mL/min/kg] | CLint scaled at 1 h, 1 µM (in vitro [15]; microsomes) [mL/min/kg] | further results
C[C@@H]1Cc2c([nH]c3ccccc23)[C@@H](c2c(F)cc(OC3CN(CCCF)C3)cc2F)N1CC(C)(C)F | 1 (≈ 0.504 µg/mL) | 4.8 | 0.7 | 7 | 29 |  |  |  | clearance [2]: 19 mL/min/kg; Papp A→B at 3 h, 10 µM [3]: 0.4 ×10⁻⁶ cm/s; clearance (in vivo [5]): 19 mL/min/kg; bioavailability (in vivo [6]): 31%
CC1=C(c2cccc(O)c2)[C@H](c2ccc(OCCN3CC(CF)C3)cc2)Oc2ccc(O)cc21 | 47 (≈ 21.7 µg/mL) |  |  |  | 46 |  |  |  | Papp A→B at 3 h, 10 µM [3]: 4.6 ×10⁻⁶ cm/s; Emax [9]: 97%; T1/2 [10]: 6 h; bioavailability (in vivo [11]): 17%
C[C@@H]1Cc2c([nH]c3cccc(F)c23)[C@@H](c2c(F)cc(NC3CN(CCCF)C3)cc2F)N1CC(F)(F)CO | 92 (≈ 49.7 µg/mL) | 3.3 | 0.5 | 12 | 23 | 0.04 | 12 | 19 | Papp A→B at 3 h, 10 µM [3]: 0.9 ×10⁻⁶ cm/s; IC50 (Estrogen receptor [12]): 0.15 nM; clearance (in vivo [5]): 27 mL/min/kg
C[C@]12CC[C@@H]3c4ccc(O)cc4C[C@@H](CCCCCCCCC[S+]([O-])CCCC(F)(F)C(F)(F)F)[C@H]3[C@@H]1CC[C@@H]2O (stereo not given in full) [FULVESTRANT] | 3 (≈ 1.82 µg/mL) | > 5 | 2.4 | 15 | 29 |  |  |  | Emax [9]: 103%; T1/2 [10]: 2.2 h
C[C@@H]1Cc2c([nH]c3ccccc23)[C@@H](c2c(F)cc(OCCN3CC(CF)C3)cc2F)N1CC(C)(C)F | 10 (≈ 5.04 µg/mL) | 4 | 1 | 6 | 29 |  | 10 | 29 | clearance [2]: 34 mL/min/kg; bioavailability (in vivo [6]): 31%
C[C@@H]1Cc2c(ccc3[nH]ncc23)[C@@H](c2c(F)cc(OCCN3CC(CF)C3)cc2F)N1CC(C)(C)F | 1 (≈ 0.505 µg/mL) |  | 0.8 |  |  | 0.06 | 17 | 44 | IC50 (Estrogen receptor [12]): 0.2 nM
C[C@@H]1Cc2c([nH]c3ccccc23)[C@@H](c2c(F)cc(OCCNCCCF)cc2F)N1CC(F)(F)CO |  |  | 0.9 |  |  |  |  |  | 
C[C@@H]1Cc2c([nH]c3ccccc23)[C@@H](c2c(F)cc(O[C@H]3CCN(CCCF)C3)cc2F)N1CC(F)(F)CO | 35 (≈ 18.8 µg/mL) |  | 0.3 |  |  | 0.12 | 15 | 35 | 
CC/C(=C(\c1ccc(O)cc1)c1ccc(OCCN(C)C)cc1)c1ccccc1 [AFIMOXIFENE] | 31 (≈ 12 µg/mL) | 4 | 3.5 | 14 | 32 |  |  |  | 
C[C@@H]1Cc2c([nH]c3ccccc23)[C@@H](c2c(F)cc(NCCNCCCF)cc2F)N1CC(F)(F)CO | 199 (≈ 102 µg/mL) |  | 0.6 |  |  | 0.27 | 7 | < 6 | Emax [9]: 90%
C[C@@H]1Cc2c([nH]c3ccc(F)cc23)[C@@H](c2c(F)cc(NC3CN(CCCF)C3)cc2F)N1CC(F)(F)CO |  |  | 0.5 |  |  |  |  |  | inhibition at 10 µM (Nav1.5): 14%; inhibition at 10 µM (Cav1.2): 10.7%; CL free [16]: 1475 mL/min/kg; clearance (in vivo [5]): 18 mL/min/kg; CLint scaled at 1 h (in vitro [7]; human hepatocytes): 10 mL/min/kg; CLint scaled at 1 h (in vitro [8]; rat hepatocytes): 15 mL/min/kg; CLint scaled at 1 h, 1 µM (in vitro [14]; human liver microsomes): 10 mL/min/kg; CLint scaled at 1 h, 1 µM (in vitro [15]; rat liver microsomes): 14 mL/min/kg
C[C@@H]1Cc2c([nH]c3ccccc23)[C@@H](c2c(F)cc(NC3CN(CCC(F)F)C3)cc2F)N1CC(F)(F)CO | 42 (≈ 22.7 µg/mL) |  | 0.8 |  |  | 0.02 | 12 | 25 | IC50 (Estrogen receptor [12]): 0.09 nM
C[C@@H]1Cc2c([nH]c3ccccc23)[C@@H](c2c(F)cc(OC3CN(CCCO)C3)cc2F)N1CC(F)(F)CO | 163 (≈ 85 µg/mL) |  | 0.6 |  |  | 0.03 | 9 | 10 | IC50 (Estrogen receptor [12]): 0.08 nM
C[C@@H]1Cc2c([nH]c3ccccc23)[C@@H](c2c(F)cc(N[C@H]3CCN(CCCF)C3)cc2F)N1CC(F)(F)CO | 80 (≈ 42.9 µg/mL) |  | 0.3 |  |  | 0.16 | 11 | 26 | 
CC/C(=C(\c1ccccc1)c1ccc(OCCN(C)C)cc1)c1ccccc1 [TAMOXIFEN] |  |  | > 200 | 12 | 33 |  |  |  | clearance [2]: 95 mL/min/kg; bioavailability (in vivo [11]): 69%
CC/C(=C(/c1ccc(/C=C/C(=O)O)cc1)c1ccc2[nH]ncc2c1)c1ccc(F)cc1Cl [BRILANESTRANT] | 19 (≈ 8.49 µg/mL) | 3.8 | 17 | 15 | 6 |  |  |  | clearance [2]: 40 mL/min/kg; Papp A→B at 3 h, 10 µM [3]: 2.3 ×10⁻⁶ cm/s; bioavailability (in vivo [11]): 30%
C[C@@H]1Cc2c([nH]c3ccccc23)[C@@H](c2ccc(NC3CN(CCCF)C3)nc2)N1CC(F)(F)CO | 114 (≈ 55.6 µg/mL) |  | > 200 |  |  | > 1000 | 6 | 23 | IC50 (Estrogen receptor [12]): > 1000 nM
